Experiments:
postsurgical patients = conditions: PCA/IV morphine with low dose IV antagonist; cited from earlier work
[1] = tested on: moderate to severe pain following dental surgery; experiment: Dose ranging clinical study of morphine 30, 60, 90 mg alone or with NTX 0.1 mg; format: in vivo, human; conditions: 30 mg, 60 mg and 90 mg MS alone compared with each other
Description: In this dose ranging study, doses of morphine sulfate (30 mg, 60 mg, and 90 mg) in combination with naltrexone hydrochloride (0.1 mg) were administered for moderate to severe pain in male patients following dental surgery. This study was performed to investigate the efficacy of combinations of different doses of morphine with naltrexone 0.1 mg, relative to placebo and relative to morphine alone, to evaluate the dose-response effects of morphine when administered alone and when coadministered with naltrexone 0.1 mg, and to examine the consistency of effect of naltrexone 0.1 mg across different doses of morphine, when coadministered with morphine.
The 210 subject study was designed with seven treatment groups: A) placebo (30 pts); B) morphine 30 mg (30 pts); C) morphine 60 mg (30 pts); D) morphine 90 mg (30 pts); E) morphine 30 mg and naltrexone 0.1 mg (30 pts); F) morphine 60 mg and naltrexone 0.1 mg (30 pts); G) morphine 90 mg and naltrexone 0.1 mg (30 pts). In this study, in the treatment of moderate to severe pain following extraction of 3 or 4 full or partial bony impacted third molars, a single oral dose of one of the treatments was administered when the patient was suffering moderate to severe postoperative pain. The observation period for efficacy was 8 hours post treatment and for safety was 24 hours post treatment. […]

[2] = Binding of drug in solution to pharmaceutical excipients
[3] = tested on: moderate to severe pain following dental surgery; experiment: Dose ranging clinical study of morphine 60 mg with NTX 0.1, 0.01 or 0.001 mg, and NTX alone; format: in vivo, human; conditions: NTX 0.01 mg alone, among treatment groups
Description: In a dose ranging study, doses of morphine sulfate (60 mg) in combination with naltrexone hydrochloride (0.1 mg, 0.01 mg, or 0.001 mg) were administered for moderate to severe pain in patients following dental surgery. This study was performed to investigate the analgesic efficacy (onset, peak, duration, and total effect) of morphine alone, naltrexone alone, three different doses of naltrexone in combination with morphine and placebo.
The 300 subject study was designed with six treatment groups: A) placebo (50 pts); B) morphine 60 mg (50 pts); C) naltrexone 0.01 mg (50 pts); D) morphine 60 mg and naltrexone 0.1 mg (50 pts); E) morphine 60 mg and naltrexone 0.01 mg (50 pts); F) morphine 60 mg and naltrexone 0.001 mg (50 pts). In this study, in the treatment of moderate to severe pain following extraction of 3 or 4 full or partial bony impacted third molars, a single oral dose of one of the treatments was administered when the patient was suffering moderate to severe postoperative pain. The observation period for efficacy was 8 hours post treatment, and for safety was 24 hours post treatment.
The efficacy and safety evaluations included pain intensity, pain relief, global pain evaluation, evaluation of time to meaningful pain relief (stopwatch), visual analog scale (VAS), and adverse event assessments. For the data analysis, certain pain parameters were computed as generally described above.

[4] = tested on: excitatory opioid receptors; conditions: mice, antagonist on the order of ng/kg with morphine or similar opioid agonists; cited from earlier work
[5] = excipients of Example 10, aqueous environment
[6] = excipients of Example 12, aqueous environment

C=C1CC[C@@]2(O)[C@H]3Cc4ccc(O)c5c4[C@@]2(CCN3CC2CC2)[C@H]1O5 [nalmefene, 6-methylene-6-desoxy-N-cyclopropyl-methyl-14-hydroxydihydroxy-dihydronormorphine]
effect on potency of morphine (postsurgical patients): markedly enhanced potency of morphine

CN1CC[C@]23c4c5ccc(O)c4O[C@H]2[C@@H](O)C=C[C@H]3[C@H]1C5.O=S(=O)(O)O [MS, morphine sulfate]
mean SPID scores [1]: comparable | mean Total Pain Relief scores [1]: comparable | binding to croscarmellose sodium ([2]; croscarmellose sodium): also bound to this excipient | binding by the excipients used [2, 5]: not to bind | binding by the excipients used [2, 6]: not to bind

C=CCN1CC[C@]23c4c5ccc(O)c4O[C@H]2C(=O)CC[C@@]3(O)[C@H]1C5 [naloxone, 4,5-epoxy-3,14-dihydroxy-17-(2-prophenyl)morphinan-6-one]
effect on potency of morphine (postsurgical patients): markedly enhanced potency of morphine

Cl.O=C1CC[C@@]2(O)[C@H]3Cc4ccc(O)c5c4[C@@]2(CCN3CC2CC2)[C@H]1O5 [naltrexone hydrochloride, 17-cyclopropylmethyl-4,5α-epoxy-3,14-dihydroxymorphinan-6-one hydrochloride]
global evaluation scores [3]: highest number of subjects who had “poor” global evaluation scores | mean 4 hour Sum of Pain Intensity Difference (SPID) scores [3]: lowest | mean Total Pain Relief scores [3]: lowest | effect on analgesic potency of opioid agonists [4]: markedly enhancing the analgesic potency of opioid agonists | fraction of drug bound by croscarmellose sodium ([2]; drug in solution mixed with croscarmellose sodium in suspension): more than 90% | binding by the excipients used [2, 5]: not to bind | binding by the excipients used [2, 6]: not to bind
